The molecules below were run on ovarian cancer cell line 2774 (assay: thiazole blue colorimetric method, half inhibitory concentration on ovarian cancer cell line 2774).
Type: cell-based

Structure (SMILES) | IC50 [µM]
CCC(=O)OC1(CC)C(=O)OCc2c1cc1n(c2=O)Cc2cc3cc(OC)ccc3nc2-1 (stereo not shown) [10-methoxycamptothecin-20-O-propionate] | 842 ± 50.1
CCC1(OC(=O)[C@H](Cc2ccccc2)NC(=O)OC(C)(C)C)C(=O)OCc2c1cc1n(c2=O)Cc2cc3cc(OC)ccc3nc2-1 (stereo partly drawn) [10-methoxycamptothecin-20-O—(N′-t-butoxycarbonyl)-L-phenylalanine ester] | 394 ± 21.7
CCC1(OC(=O)[C@@H](NC(=O)OC(C)(C)C)C(C)C)C(=O)OCc2c1cc1n(c2=O)Cc2cc3cc(OC)ccc3nc2-1 (stereo partly drawn) [10-methoxycamptothecin-20-O—(N′-t-butoxycarbonyl)-L-valine ester] | 1970 ± 93.6
CCC1(OC(=O)[C@H](C)NC(=O)OC(C)(C)C)C(=O)OCc2c1cc1n(c2=O)Cc2cc3cc(OC)ccc3nc2-1 (stereo partly drawn) [10-methoxycamptothecin-20-O—(N′-t-butoxycarbonyl)-L-alanine ester] | 46.7 ± 21.7

Reference: patent US9034894B2, “Derivate, preparation method and use of 10-methoxycamptothecin” (NORTHEAST FORESTRY UNIVERSITY, priority 2011, dated 2015)
